From ChEMBL document CHEMBL5331082, “p53 as a potential target for treatment of cancer: A perspective on recent advancements in small molecules with structural insights and SAR studies” (Eur J Med Chem, 2023)
≈ marks a conversion by molar mass, not a printed value.

Columns and labels:
PC-3 [1] = test: Antiproliferative activity against human PC-3 cells assessed as inhibition of cell growth by MTT assay; type: functional, cell-based
MCF7 [2] = test: Antiproliferative activity against human MCF7 cells assessed as inhibition of cell growth by MTT assay; type: functional, cell-based
HeLa = test: Antiproliferative activity against human HeLa cells assessed as inhibition of cell growth by MTT assay; type: functional, cell-based
HCT-116 [3] = test: Antiproliferative activity against human HCT-116 cells assessed as inhibition of cell growth by MTT assay; type: functional, cell-based
HCT-116 [4] = test: Induction of apoptosis in human HCT-116 cells assessed as increase in p53 level; type: functional
MDA-MB-231 [5] = test: Induction of apoptosis in human MDA-MB-231 cells assessed as increase in p53 level; type: functional
HCT-116 [6] = test: Antiproliferative activity against human HCT-116 cells assessed as inhibition of cell growth; type: functional, cell-based
PC-3 [7] = test: Induction of apoptosis in human PC-3 cells assessed as increase in p53 level; type: functional
PC-3 [8] = test: Antiproliferative activity against human PC-3 cells assessed as inhibition of cell growth; type: functional, cell-based
A549 [9] = test: Antiproliferative activity against human A549 cells assessed as inhibition of cell growth; type: functional, cell-based
A549 [10] = test: Induction of apoptosis in human A549 cells assessed as increase in p53 level; type: functional
MDA-MB-231 [11] = test: Antiproliferative activity against human MDA-MB-231 cells assessed as inhibition of cell growth; type: functional, cell-based
[12] = biological target: E3 ubiquitin-protein ligase Mdm2 (Homo sapiens) (UniProt Q00987); test: Binding affinity to MDM2 (unknown origin) assessed as change in Gibbs free energy
A549 [13] = test: Antiproliferative activity against human A549 cells assessed as inhibition of cell growth by MTT assay; type: functional, cell-based
HT-29 = test: Antiproliferative activity against human HT-29 cells assessed as inhibition of cell growth by MTT assay; type: functional, cell-based
PANC-1 = test: Antiproliferative activity against human PANC-1 cells assessed as inhibition of cell growth by MTT assay; type: functional, cell-based
MCF7 [14] = test: Antiproliferative activity against human MCF7 cells assessed as inhibition of cell growth; type: functional, cell-based
SH-SY5Y = test: Antiproliferative activity against human SH-SY5Y cells assessed as inhibition of cell growth by CCK-8 assay; type: functional, cell-based
U-87 MG [15] = test: Antiproliferative activity against human U-87 MG cells assessed as inhibition of cell growth by CCK-8 assay; type: functional, cell-based, U-87MG ATCC
[16] = biological target: E3 ubiquitin-protein ligase Mdm2 (Homo sapiens) (UniProt Q00987); test: Binding affinity to MDM2 (unknown origin) at 10 uM relative to control
HCT-116 [17] = test: Antiproliferative activity against human HCT-116 cells assessed as inhibition of cell growth by CCK-8 assay; type: functional, cell-based
U-87 MG [18] = test: Antiproliferative activity against human U87 cells assessed as inhibition of cell growth; type: functional, cell-based, U-87MG ATCC
HL-60 = test: Antiproliferative activity against human HL-60 cells assessed as inhibition of cell growth; type: functional, cell-based
LNCaP = test: Antiproliferative activity against human LNCaP cells expressing p53 assessed as inhibition of cell growth by MTT assay; type: functional, cell-based
[19] = biological target: Tumour suppressor protein p53/Mdm4 (Homo sapiens, UniProt O15151+P04637); test: Binding affinity to MDM4/p53 interaction (unknown origin) assessed as inhibition constant; type: protein assay
[20] = biological target: T1, Tumour suppressor p53/oncoprotein Mdm2 (Homo sapiens, UniProt P04637+Q00987); test: Binding affinity to MDM2/p53 interaction (unknown origin) assessed as inhibition constant; type: protein assay
[21] = biological target: T1, Tumour suppressor p53/oncoprotein Mdm2; test: Inhibition of MDM2/p53 interaction (unknown origin); type: protein assay
JEG-3 = test: Antiproliferative activity against human JEG-3 cells assessed as inhibition of cell growth; type: functional, cell-based
K562 = test: Antiproliferative activity against human K562 cells assessed as inhibition of cell growth; type: functional, cell-based

T1 sequence (P04637 whole entry): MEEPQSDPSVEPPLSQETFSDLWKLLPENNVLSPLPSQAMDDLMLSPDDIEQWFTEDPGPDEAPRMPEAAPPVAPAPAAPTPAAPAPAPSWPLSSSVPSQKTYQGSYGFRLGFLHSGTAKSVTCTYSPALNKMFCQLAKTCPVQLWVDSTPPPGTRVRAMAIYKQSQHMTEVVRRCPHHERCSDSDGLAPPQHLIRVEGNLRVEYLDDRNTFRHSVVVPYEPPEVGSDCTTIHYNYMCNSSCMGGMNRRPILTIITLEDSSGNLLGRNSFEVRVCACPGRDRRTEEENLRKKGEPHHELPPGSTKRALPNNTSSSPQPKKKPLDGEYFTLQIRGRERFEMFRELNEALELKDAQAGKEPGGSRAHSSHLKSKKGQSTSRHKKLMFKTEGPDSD
T1 sequence (Q00987 whole entry): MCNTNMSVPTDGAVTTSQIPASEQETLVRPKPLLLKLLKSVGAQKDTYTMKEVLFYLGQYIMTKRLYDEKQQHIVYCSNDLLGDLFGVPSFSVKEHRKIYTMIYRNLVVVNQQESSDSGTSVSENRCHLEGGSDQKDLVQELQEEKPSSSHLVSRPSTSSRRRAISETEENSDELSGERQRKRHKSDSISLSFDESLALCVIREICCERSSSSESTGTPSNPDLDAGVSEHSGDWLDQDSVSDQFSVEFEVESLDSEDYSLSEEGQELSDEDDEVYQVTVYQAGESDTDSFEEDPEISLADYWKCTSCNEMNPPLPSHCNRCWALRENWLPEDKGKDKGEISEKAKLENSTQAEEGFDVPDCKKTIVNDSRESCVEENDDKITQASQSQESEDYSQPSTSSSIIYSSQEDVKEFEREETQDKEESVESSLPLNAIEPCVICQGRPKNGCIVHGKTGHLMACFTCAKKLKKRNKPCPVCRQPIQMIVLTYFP
Sequence of E3 ubiquitin-protein ligase Mdm2 (Homo sapiens) (Q00987 whole entry, looked up): as the sequence (Q00987 whole entry) above
Sequence of Tumour suppressor protein p53/Mdm4 (P04637 whole entry): as the sequence (P04637 whole entry) above
Sequence of Tumour suppressor protein p53/Mdm4 (O15151 whole entry): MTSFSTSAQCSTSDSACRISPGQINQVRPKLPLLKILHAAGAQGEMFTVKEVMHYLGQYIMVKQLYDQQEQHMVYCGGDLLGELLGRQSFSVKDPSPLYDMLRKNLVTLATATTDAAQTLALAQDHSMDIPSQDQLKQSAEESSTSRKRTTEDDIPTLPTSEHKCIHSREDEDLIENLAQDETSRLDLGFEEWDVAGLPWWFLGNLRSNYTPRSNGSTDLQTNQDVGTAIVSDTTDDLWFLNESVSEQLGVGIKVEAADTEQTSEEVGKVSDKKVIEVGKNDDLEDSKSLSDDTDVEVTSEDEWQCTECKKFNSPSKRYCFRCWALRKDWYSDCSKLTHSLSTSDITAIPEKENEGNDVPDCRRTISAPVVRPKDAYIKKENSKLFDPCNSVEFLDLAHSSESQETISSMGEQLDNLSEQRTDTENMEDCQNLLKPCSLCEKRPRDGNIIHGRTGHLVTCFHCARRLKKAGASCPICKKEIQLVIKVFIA

`C[C@@H]1[C@@H]2CCCC[C@@H]2N2[C@H]1[C@@H](c1ccccc1)[C@@]1(CCC/C(=C\c3ccccc3)C1=O)[C@@]21C(=O)Nc2cc(Cl)ccc21` showed an IC50 (PC-3 [1]) of 3.7 µM.

Work on `Cc1cc(S(=O)(=O)/N=C2/NCCN2Cc2ccc(C(F)(F)F)cc2)c(SCc2nc(N)nc(N3CCN(c4cccc(F)c4)CC3)n2)cc1Cl` yielded an IC50 (MCF7 [2]) of 4.6 µM, an IC50 (HeLa) of 4.6 µM and an IC50 (HCT-116 [3]) of 4.6 µM.

In the case of `Cc1cc(S(=O)(=O)/N=C2/NCCN2Cc2cc(C(F)(F)F)cc(C(F)(F)F)c2)c(SCc2nc(N)nc(N3CCN(Cc4ccccc4)CC3)n2)cc1Cl`, the IC50 (MCF7 [2]) is reported as 4.8 µM, the IC50 (HeLa) is reported as 4.8 µM and the IC50 (HCT-116 [3]) is reported as 4.8 µM.

In the case of `O=C(c1nc2ccccc2[nH]1)[C@H]1[C@H](c2ccccc2)C2CC3CCCCC3N2[C@]12C(=O)Nc1ccc(Cl)cc12` (stereo partly drawn), the Activity (HCT-116 [4]) is reported as 49.83%, the Activity (MDA-MB-231 [5]) is reported as 51.51% and the IC50 (HCT-116 [6]) is reported as 7.24 µM. For the same compound, the Activity (PC-3 [7]) was 57.53%, the IC50 (PC-3 [8]) was 3.4 µM and the IC50 (A549 [9]) was 7.81 µM. It also gave an Activity (A549 [10]) of 34.31% and an IC50 (MDA-MB-231 [11]) of 2.4 µM.

`COc1ccc(-c2nc3sc(-c4ccc(Br)cc4Br)cn3n2)cc1` showed a deltaG [12] of -7.55 kcal/mol, an IC50 (MCF7 [2]) of 1.2 µM and an IC50 (A549 [13]) of 1.4 µM. It also gave an IC50 (HT-29) of 1.3 µM and an IC50 (PANC-1) of 1.6 µM.

For `Cc1cc(S(=O)(=O)/N=C2/NCCN2Cc2cc(C(F)(F)F)cc(C(F)(F)F)c2)c(SCc2nc(N)nc(N3CCN(c4ccccc4)CC3)n2)cc1Cl`, the IC50 (MCF7 [2]) was 3.6 µM, the IC50 (HeLa) was 3.6 µM and the IC50 (HCT-116 [3]) was 3.6 µM.

For `O=c1[nH]cc(F)c(=O)[nH]1` [FLUOROURACIL], the IC50 (MCF7 [14]) was 78.3 µM.

For `O=C1NC(O)(c2ccc(Cl)cc2)C(c2ccc(Cl)cc2)=C1c1ccc(Cl)cc1` (stereo not drawn), the IC50 (SH-SY5Y) was 1.48 µM, the IC50 (U-87 MG [15]) was 0.93 µM and the Activity [16] was 97%. It also gave an IC50 (HCT-116 [17]) of 0.59 µM.

In the case of `O=C(Nc1cccc(Cl)c1)Sc1nnc(-c2ccc(Cl)cc2)n1-c1ccccc1`, the IC50 (A549 [9]) is reported as 3.85 µM, the IC50 (U-87 MG [18]) is reported as 4.15 µM and the IC50 (HL-60) is reported as 17.5 µM.

`COc1ccc([C@@H]2CN(C)[C@@]3(C(=O)Nc4ccccc43)[C@]23N=C(c2ccc(C)cc2)OC3=O)cc1` gave an IC50 (LNCaP) of 1.08 µM and an IC50 (PC-3 [1]) of 3.21 µM.

`O=C1/C(=C/c2cccc(Cl)c2)c2ccccc2N1S(=O)(=O)c1cccc(Cl)c1` gave an IC50 (HCT-116 [6]) of 11.2 µM, an IC50 (A549 [9]) of 12.5 µM and an IC50 (MCF7 [14]) of 6.17 µM. The Ki [19] was 0.031 µM and the Ki [20] was 7.24 µM.

Work on `C[C@@H]1[C@@H]2CCCC[C@@H]2N2[C@H]1[C@@H](c1ccc(F)cc1)[C@@]1(CCC/C(=C\c3ccc(F)cc3)C1=O)[C@@]21C(=O)Nc2cc(Cl)ccc21` yielded an IC50 (HeLa) of 7.2 µM.

For `COc1cc(OC)c(C(=O)/C=C/c2ccc(Br)cc2)c(OCC=C(C)C)c1`, the IC50 [21] was 2.1 µM.

`C[C@@H]1CN(C)[C@]2(C(=O)N(CN3CCCC3)c3ccccc32)[C@@]12CCC/C(=C\c1ccccc1)C2=O` was tested, and the IC50 (MCF7 [14]) was 31 µg/mL, the IC50 (JEG-3) was 31 µg/mL (≈ 66 µM) and the IC50 (MDA-MB-231 [11]) was 31 µg/mL.

With `C[C@@H]1[C@@H]2CCCC[C@@H]2N2[C@H]1[C@@H](c1ccccc1)[C@@]1(CCC/C(=C\c3ccccc3)C1=O)[C@@]21C(=O)Nc2ccccc21` the IC50 (HeLa) was 7.1 µM.

`Cc1cc(S(=O)(=O)/N=C2/NCCN2Cc2ccc(C(F)(F)F)cc2)c(SCc2nc(N)nc(N3CCN(c4cccc(C(F)(F)F)c4)CC3)n2)cc1Cl` showed an IC50 (MCF7 [2]) of 5 µM, an IC50 (HeLa) of 5 µM and an IC50 (HCT-116 [3]) of 5 µM.

Work on `COc1ccc(/C=C2\CCC[C@@]3(C2=O)[C@@H]2CCCN2[C@@]2(C(=O)Nc4ccccc42)[C@H]3c2ccc(OC)cc2)cc1` yielded an IC50 (K562) of 13.4 µM.

`C[C@@H]1CN(C)[C@]2(C(=O)N(CN3CCSCC3)c3ccccc32)[C@@]12CCC/C(=C\c1ccccc1)C2=O` showed an IC50 (MCF7 [14]) of 31 µg/mL, an IC50 (JEG-3) of 31 µg/mL (≈ 61.8 µM) and an IC50 (MDA-MB-231 [11]) of 31 µg/mL.

In the case of `O=C1/C(=C/c2ccc(Br)cc2)CCC[C@]12[C@@H]1CCCN1[C@@]1(C(=O)Nc3ccccc31)[C@H]2c1ccc(Br)cc1`, the IC50 (MCF7 [14]) is reported as 15.5 µM.

`CN1[C@H](c2ccc(Cl)cc2)[C@@]2(C[C@]13C(=O)Nc1ccc(Br)cc13)NC(=O)N(c1ccc(F)c(Cl)c1)C2=O` showed an IC50 (MCF7 [2]) of 1.3 µM.
